The results in this text go back to PMC10564737, “Structure-based design of a phosphotyrosine-masked covalent ligand targeting the E3 ligase SOCS2” (Nature Communications, 2023).

Where “and” joins values, the source holds several entries; their conditions need not be identical. Equal values may be shown once. Some results are limits rather than exact numbers.

What is called half-life is the time in which the quantity being followed falls by half.

One data set deals with T1, CISH-EloBC (Homo sapiens, UniProt Q9NSE2, DEL174-202).
T1 construct: CISH (66-258 Δ174-202) was codon-optimized for bacterial expression; GST (from pGEX-6P-1); made in house; host or cells: E. coli BL21(DE3)
Description: Intact ESI-MS of recombinant protein, covalent modification. Format: biochemical. The following applies: CISH + MN551 (1:1, 40 µM), 0 min. An excerpt: (§1) Having established the specificity of MN551 for covalent modification of Cys111 of SOCS2, we turned our attention to the intra-SOCS family selectivity of MN551. We performed a multiple sequence alignment of the SH2 domains from all the SOCS proteins (Fig. 3a). The Cys111 targeted by MN551 for covalency is part of the EF loop in SOCS2. Beyond SOCS2, other family members SOCS4, SOCS5, SOCS7, and CISH also have a cysteine in the same loop (Fig. 3a), and given the expected conserved ligand binding mode, they could all be engaged by MN551. To verify our hypothesis, we incubated recombinant SOCS/EloBC complexes of SOCS4 (SBC4), SOCS6 (SBC6), and CISH with MN551 for 2 h and analyzed for covalent modification of the SOCS proteins by intact ESI-MS (Fig. 3b–d). These proteins were chosen as SOCS4 and SOCS6 are already structurally well characterized, and because SOCS4 Cys350, and CISH Cys144 are in a similar position as Cys111 in SOCS2, whereas SOCS6 is lacking cysteines in the EF loop[36]–[38]. […] Although SOCS6 lacks a cysteine in its EF loop, Cys471 from the BG loop is predicted to be in close proximity to the chloroacetamide functional group of MN551, as evident from the superposed SOCS2 and SOCS6 structures, potentially explaining the modification, albeit minimal (Fig. 3f). Structure-guided improvements upon this observed MN551-SOCS6 covalency could expedite future attempts in development of covalent binders for SOCS6. In the absence of a PDB structure for CISH, we overlayed SOCS2-SH2 domain with an AlphaFold model generated for the CISH SH2 domain with deletions in the N-terminus and the PEST sequence (66-258, Δ174-202, Fig. 3g). Amongst all the SOCSs, CISH has the highest sequence identity to SOCS2-SH2 and the presence of a conserved Cys144 in the EF loop together likely explain its complete covalent modification by MN551.
(§2) SBC2 protein (40 µM), SBC2 C111S, SBC4, SBC6, or CISH were incubated with an equimolar concentration of MN551 in 50 mM Tris, pH 8.0, 50 mM NaCl, 1 mM TCEP. At defined time points 20 µl samples were removed and the protein precipitated by the addition of 80 µl methanol. The precipitated protein was pelleted by centrifugation, washed with 500 µl methanol, and resuspended in an aqueous solution of 15% acetonitrile and 1% TFA. Samples were separated by HPLC on a C3 column using a 10–75% gradient of acetonitrile and analyzed using an Agilent 6130 quadrupole MS. Spectra were deconvoluted and integrated using Agilent LC/MSD ChemStation.

The target of another data set is T2, SOCS4-EloBC (SBC4) (Homo sapiens, UniProt Q8WXH5).
T2 construct: SOCS4 (amino acids 274-437); made in house; E. coli implied
The description is as above. The note with it: SOCS4 + MN551 (1:1, 40 µM), 0 min. The format is biochemical.
Description: as §1, §2

A further data set addresses T3, SOCS6-EloBC (SBC6) (Homo sapiens, UniProt O14544).
T3 construct: SOCS6 (amino acids 353-535); His6-GST (N, cleaved yes); made in house; E. coli implied
Described as above. The note with it: SOCS6 + MN551 (1:1, 40 µM). The format is biochemical.
Description: as §1, §2

Data set [1] is described as follows: In-cell time-resolved 19F-NMR of prodrug unmasking. Format: in vitro ADME. The note with it: human, K562 cell suspension (65% v/v cell content), 37 °C, read-out: half-life time of prodrug unmasking in cells. An excerpt:
(§3) Although, with the live-cell CETSA setup we could rank the prodrugs for overall potency, we cannot decouple the individual contributions of cellular permeability and prodrug unmasking rate. To understand the rate of unmasking inside the live cells, we developed an in-cell time-resolved ^19F-NMR to monitor the rate of POM group unmasking (Fig. 5). ^19F-NMR is uniquely suited for this task due to the high receptivity of ^19F, low background in biological samples, and remarkable sensitivity of ^19F chemical shifts to their chemical environment[43],[44]. The latter means that even the distant fluorine of MN551 could act as a reporter for the presence of the masking group on the phosphotyrosine moiety. […] While the downfield peak starts off with higher intensity, it loses intensity quickly and within an hour is overtaken by the growing upfield peak. Within 3 h the downfield peak completely disappears and only the upfield peak is observed. […]
(§4) K562 cells were maintained in IMDM media supplemented with 10% FBS. […] To confirm the identity of the observed species, the lysate was sequentially spiked with 500 µM MN551 and prodrug and measured again. […] All spectra were processed and analyzed using Topspin 4.1.1.

A further data set relates to K562 cells. Description: In-cell time-resolved 19F-NMR of prodrug unmasking. The format is in vitro ADME. The following applies: K562 cell suspension, 500 µM, 37 °C.
Description: as §3, §4

In the case of `O=C(CCl)Nc1cccc(CNC(=O)[C@H](Cc2ccc(OP(=O)(O)O)cc2)NC(=O)Cc2ccc(F)cc2)c1` [MN551], the “% modified” value at CISH-EloBC and at SOCS4-EloBC (SBC4) was 0.0% in each case. Further, the results for the “% double-modified” value at SOCS6-EloBC (SBC6) (0 min) and at SOCS6-EloBC (SBC6) (120 min) were 0.0% and 2.6%, respectively. Also, the “% modified (single adduct)” value was 0.0% on SOCS6-EloBC (SBC6) (0 min); 18% and 18.3% on SOCS6-EloBC (SBC6) (120 min).

As to `CC(C)(C)C(=O)OCOP(=O)(OCOC(=O)C(C)(C)C)Oc1ccc(C[C@H](NC(=O)Cc2ccc(F)cc2)C(=O)NCc2cccc(NC(=O)CCl)c2)cc1` [MN714], the half-life at 500 µM in data set [1] fell in the range of 1 to 1.5 h. The “time to complete disappearance of the prodrug (downfield) peak” value with K562 cells is not above 3 h.
